In PMC5419029 (Cancer research, 2017):

Legend:
[1] = target: T1, OCTN1 (Homo sapiens, UniProt Q9H015); assay: uptake; type: cell-based
T1 sequence (Q9H015 1-551): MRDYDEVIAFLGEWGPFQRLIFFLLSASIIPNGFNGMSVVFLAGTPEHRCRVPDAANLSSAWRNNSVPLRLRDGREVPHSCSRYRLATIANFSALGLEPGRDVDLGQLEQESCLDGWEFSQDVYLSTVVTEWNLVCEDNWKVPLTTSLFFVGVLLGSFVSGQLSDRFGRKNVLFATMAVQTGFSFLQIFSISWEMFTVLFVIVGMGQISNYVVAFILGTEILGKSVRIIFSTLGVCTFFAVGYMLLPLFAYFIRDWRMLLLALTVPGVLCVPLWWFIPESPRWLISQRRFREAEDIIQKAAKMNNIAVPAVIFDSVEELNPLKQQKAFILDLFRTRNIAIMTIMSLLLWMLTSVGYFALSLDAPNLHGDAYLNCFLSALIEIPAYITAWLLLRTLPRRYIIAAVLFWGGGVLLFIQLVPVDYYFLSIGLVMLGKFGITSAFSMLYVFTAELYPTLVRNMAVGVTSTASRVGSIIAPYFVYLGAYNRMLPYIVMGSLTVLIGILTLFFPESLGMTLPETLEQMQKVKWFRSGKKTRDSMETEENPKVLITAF

[2] = target: T1, OCTN1; assay: uptake in OCTN1-transfected HEK293 cells; type: cell-based
[3] = target: T1, OCTN1

Structure (SMILES)	uptake (1 μM, 5 min) in OCTN1-transfected HEK293 cells [1]	further results
Nc1nc(Cl)nc2c1ncn2[C@@H]1O[C@H](CO)[C@@H](O)[C@@H]1F [clofarabine]	adenosine analogs (eg, clofarabine and fludarabine), and guanosine analogs (eg, ribavirin)	–
C[N+](C)(C)[C@@H](Cc1c[nH]c(=S)[nH]1)C(=O)[O-] [ergothioneine]	–	uptake in OCTN1-transfected HEK293 cells (transport efficiency) [2]: 62 ± 8 µL/min/mg
Nc1nc(F)nc2c1ncn2[C@@H]1O[C@H](CO)[C@@H](O)[C@@H]1O [fludarabine]	adenosine analogs (eg, clofarabine and fludarabine), and guanosine analogs (eg, ribavirin)	–
NC(=O)c1ncn([C@@H]2O[C@H](CO)[C@@H](O)[C@H]2O)n1 [ribavirin]	adenosine analogs (eg, clofarabine and fludarabine), and guanosine analogs (eg, ribavirin)	–
CC[N+](CC)(CC)CC [tetraethylammonium]	–	carbon 14-labeled TEA uptake in OCTN1-transfected HEK293 cells (transport effici) [3]: 1.1 ± 0.12 µL/min/mg
